Measurements from publication PMC10671052, “Naphthyl-Substituted Indole and Pyrrole Carboxylic Acids as Effective Antibiotic Potentiators—Inhibitors of Bacterial Cystathionine γ-Lyase” (International Journal of Molecular Sciences, 2023).

Key:
[1] = tested on: P. aeruginosa GIMC5016:PA1840/36/2015; assay: MIC of antibiotics alone and with potentiators, clinical isolate
Experimental: (§3) Overnight (ON) culture of a specific strain was grown in the liquid Luria–Bertani nutrient medium (LB broth, BD Difco) for 18 h at 37 °C, with agitation at 180 rpm using an Innova 44R orbital shaker (Eppendorf, Hamburg, Germany). After a certain period, 50 µL of the ON culture was transferred into 5 mL of the LB medium and grown for 3 h at 37 °C with agitation. Growth in the liquid medium was assessed by means of turbidity of the suspension, measured using a Densi-La-Meter II densitometer (Erba Lachema s.r.o., Brno, Czech Republic). Then, the bacterial suspension was diluted to the concentration 10^6 cells/mL with sterile LB and used as a seed culture [38, 39].
(§4) For the assessment of MICs, 96-well microtiter plates were utilized at 200 µL of a medium per well. Each well was filled with 100 µL of the seed culture. After that, 10 µL of a solution of each tested synthetic compound (potentiators) was added into each experimental well. Finally, 90 µL of twofold serial dilutions of an antibiotic in a sterile LB was added into individual wells.
(§5) As a positive control, we set up wells with 100 µL of the bacterial culture and 100 µL of the sterile LB medium. […] Negative-control wells contained 200 µL of the sterile medium. The plates were incubated in a thermostat for 18–20 h at 37 °C. The bacterial growth was assessed as optical density at 600 nm on a CLARIOstar microplate reader (BMG LABTECH GmbH, Ortenberg, Germany)).

[2] = biological target: T1, human cystathionine-γ-lyase (hCSE) (Homo sapiens, UniProt P32929); assay: IC50 assay: inhibition of H2S production by purified hCSE, WSP5 fluorescent probe; format: biochemical; settings: purified hCSE 0.02 μM, 100 μM L-cysteine, WSP5 probe, mean ± SD; read-out: IC50 biochemical assay hCSE
T1 construct: His6-TEV (N, cleaved yes); host or cells: E. coli
Experimental: (§1) Fluorescence spectrophotometry-based inhibitory activity toward purified bCSE and hCSE was measured in a 96-well nonbinding black plate (Greiner, Kremsmunster, Austria) at 100 μL of the reaction mixture per well. bCSE and hCSE (0.02 μM) were preincubated in a thermoshaker (Biosan, Riga, Latvia) (30 °C, 300 rpm) for 40 min in 50 mM sodium phosphate buffer (pH 8.0), supplemented with 10 μM pyridoxal 5′-phosphate (Sigma-Aldrich, St. Louis, MO, USA), 0.1% of Tween 20 (Sigma-Aldrich, St. Louis, MO, USA), and 1.2 μM Washington State Probe-5 (Cayman Chemical, Ann Arbor, MI, USA) (excitation: 500 nm, emission: 530 nm) at different concentrations of a tested inhibitor. The reaction was initiated by the addition of 100 μM L-cysteine (TCI, Chennai, Tamil Nadu, India) in 50 mM sodium phosphate buffer pH 8.0 to the reaction mixture, and the enzymatic activity was monitored for 12 h using a CLARIOstar Plus instrument (BMG LABTECH GmbH, Ortenberg, Germany). The 100 µM L-cysteine concentration used in the experiments corresponds to the maximal reported intracellular concentration in bacteria. The data were normalized to the positive and negative controls, and IC50 values were obtained by fitting to a four-parameter sigmoidal curve (inhibitor vs. response, variable slope model) in GraphPad Prism 8 software (GraphPad by Dotmatics, Boston, MA, USA). Each experiment was conducted with 2–3 technical replicates. IC50 values were means of at least two independent experiments.
(§2) For the production of S. aureus cystathionine-γ-lyase (bCSE) and of human cystathionine-γ-lyase (hCSE), plasmids pSUMO:saCSE (Addgene # 54336) and pNIC28-Bsa4 (Addgene # 42365) were employed. Cultivation of a competent E. coli cell strain (Thermo Fisher Scientific, Waltham, MA, USA), transformed with a target plasmid, was carried out on a selective solid medium with kanamycin. Bacterial cells harboring the plasmid vector were cultured at 37 °C and 180 rpm until OD600 = 0.65. Then, isopropyl β-D1-thiogalactopyranoside (IPTG) was added to a final concentration of 1 mM. To obtain bCSE, the cells were cultured for 3.5 h at 37 °C; to obtain hCSE, the cells were cultured for 18–20 h at 25 °C. After centrifugation, cells were resuspended in a buffer composed of 50 mM Tris–HCl, at a pH of 8.0, and 300 mM sodium chloride. After that, the cells were lysed by ultrasonication, with a pulse duration of 15 s and an interval between pulses of 15 s. The amplitude of the ultrasonic vibrations was 50% of the maximum. After lysis, samples were centrifuged for 15 min (20,000× g at 4 ℃). The pH of the supernatant obtained after the centrifugation was adjusted to 7.5 by the addition of a 1 M solution of Tris–OH. Then, the test sample was subjected to filtration through a polyethersulfone membrane with a pore diameter of 0.22 μm.

[3] = tested on: A. baumannii GIMC5509:ABT-52Ts19; assay: MIC of antibiotics alone and with potentiators, clinical isolate
Experimental: as §3, §4, §5

[4] = biological target: S. aureus cystathionine-γ-lyase (bCSE) (Staphylococcus aureus, UniProt A0A0H3K724); assay: IC50 assay: inhibition of H2S production by purified bCSE, WSP5 fluorescent probe; format: biochemical
Experimental: as §1, §2

bCSE = biological target: bCSE; parameters: method as in PMID 34112687; settings: NL2 is from ref 13; read-out: experimental inhibition constant; cited from earlier work
[5] = P. aeruginosa GIMC5016:PA1840/36/2015, potentiator 50 µg/mL
[6] = A. baumannii GIMC5509:ABT-52Ts19, potentiator 50 µg/mL

S. aureus cystathionine-γ-lyase (bCSE), sequence (A0A0H3K724 entry or part of it): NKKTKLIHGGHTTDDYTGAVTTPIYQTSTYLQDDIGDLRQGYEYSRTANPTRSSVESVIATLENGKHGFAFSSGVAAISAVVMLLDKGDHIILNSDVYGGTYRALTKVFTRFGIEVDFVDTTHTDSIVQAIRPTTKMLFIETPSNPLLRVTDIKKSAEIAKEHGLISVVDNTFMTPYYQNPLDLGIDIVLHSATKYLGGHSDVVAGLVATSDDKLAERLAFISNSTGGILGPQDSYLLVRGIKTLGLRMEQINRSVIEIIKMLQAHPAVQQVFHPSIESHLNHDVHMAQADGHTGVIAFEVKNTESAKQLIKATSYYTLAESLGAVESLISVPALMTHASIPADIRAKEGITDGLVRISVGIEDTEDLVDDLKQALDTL
T1 sequence (P32929 whole entry): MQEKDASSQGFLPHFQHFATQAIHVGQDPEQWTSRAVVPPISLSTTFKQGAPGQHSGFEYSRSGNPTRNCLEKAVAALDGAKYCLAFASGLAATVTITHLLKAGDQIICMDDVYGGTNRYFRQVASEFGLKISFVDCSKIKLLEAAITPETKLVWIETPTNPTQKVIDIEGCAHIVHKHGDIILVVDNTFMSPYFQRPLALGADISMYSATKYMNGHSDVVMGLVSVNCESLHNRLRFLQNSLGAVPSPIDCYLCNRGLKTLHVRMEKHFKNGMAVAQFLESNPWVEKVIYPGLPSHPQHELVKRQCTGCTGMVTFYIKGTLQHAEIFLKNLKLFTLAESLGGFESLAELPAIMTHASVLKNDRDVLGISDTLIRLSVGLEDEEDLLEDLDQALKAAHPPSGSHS

Cc1oc(Cn2ccc3ccc(Br)cc32)cc1C(=O)O [NL2, 5-((6-bromo-1H-indol-1-yl)methyl)-2-methylfuran-3-carboxylic acid]
MIC of Tacillin in combination with potentiator ([1]; P. aeruginosa GIMC5016:PA1840/36/2015, piperacillin + tazobactam, potentiator 50 µg/mL): 32 µg/mL
MIC of Cefepim in combination with potentiator [1, 5]: 64 µg/mL
MIC of Gentamicin in combination with potentiator [1, 5]: > 512 µg/mL
MIC of Meropenem in combination with potentiator [1, 5]: 8 µg/mL
IC50 [2]: > 500 µM
MIC of Tacillin in combination with potentiator ([3]; A. baumannii GIMC5509:ABT-52Ts19, piperacillin + tazobactam, potentiator 50 µg/mL): 128 µg/mL
MIC of Cefepim in combination with potentiator [3, 6]: 128 µg/mL
MIC of Meropenem in combination with potentiator [3, 6]: 32 µg/mL
IC50 ([4]; IC50 (uM), bCSE enzymatic IC50, rounded, repeated in Table S13): 144 µM
IC50 ([4]; IC50 (uM), bCSE enzymatic IC50, rounded, repeated in Table S14): 144 µM
IC50 ([4]; IC50 biochemical assay bCSE, purified bCSE 0.02 μM, 100 μM L-cysteine, WSP5 probe, mean ± SD): 144 ± 9 µM
Ki (bCSE): 1.8 µM
